Data as given in US20110160223A1, “NMDA Receptor Antagonists for the Treatment of Neuropsychiatric Disorders” (priority 2008, published 2011).
Read-outs that look alike come from different tables or passages of the source.

How the values were obtained:
[1] = molecular target: rat alpha-1 adrenergic receptor in rat brain membranes; assay: alpha-1 adrenergic receptor binding by displacement of 3[H]-prazosin; conditions: 3[H]-prazosin displacement, read-out: α1 IC50
Procedure: Binding to the rat alpha-1 adrenergic receptor in rat brain membranes was determined by displacement of ^3[H]-prazosin (P. Greengrass and R. Bremner; Binding characteristics of 3H-prazosin to rat brain a-adrenergic receptors. Eur. J. Pharmacol. 1979, 55: 323-326). Compounds were incubated at 0.3 or 3 μM final concentration, in duplicate, and the amount of displaced ^3[H]-prazosin determined by liquid scintillation spectroscopy.
(§1) Binding IC50 values were determined from displacement curves (four-six concentrations, each concentration in duplicate) fit by a non-linear, least squares, regression analysis using MathIQ (ID Business Solutions Ltd., UK). The binding Ki's were determined from the IC50 according to the method of Cheng and Prusoff (Y. Cheng and W. H. Prusoff; Relationship between the inhibition constant (K1) and the concentration of inhibitor which causes 50 percent inhibition (IC50) of an enzymatic reaction. Biochem. Pharmacol. 1973, 22: 3099-3108).

[2] = molecular target: NMDA receptor (NR1 + NR2 subunits) (Rattus norvegicus, UniProt P35439+Q00960); assay: Two electrode voltage clamp recording from Xenopus laevis oocytes (pH dependence of NMDA antagonism); type: cell-based; conditions: Table 22
Chain of NMDA receptor (NR1 + NR2 subunits) (Q00960 27-1482, other chains not shown): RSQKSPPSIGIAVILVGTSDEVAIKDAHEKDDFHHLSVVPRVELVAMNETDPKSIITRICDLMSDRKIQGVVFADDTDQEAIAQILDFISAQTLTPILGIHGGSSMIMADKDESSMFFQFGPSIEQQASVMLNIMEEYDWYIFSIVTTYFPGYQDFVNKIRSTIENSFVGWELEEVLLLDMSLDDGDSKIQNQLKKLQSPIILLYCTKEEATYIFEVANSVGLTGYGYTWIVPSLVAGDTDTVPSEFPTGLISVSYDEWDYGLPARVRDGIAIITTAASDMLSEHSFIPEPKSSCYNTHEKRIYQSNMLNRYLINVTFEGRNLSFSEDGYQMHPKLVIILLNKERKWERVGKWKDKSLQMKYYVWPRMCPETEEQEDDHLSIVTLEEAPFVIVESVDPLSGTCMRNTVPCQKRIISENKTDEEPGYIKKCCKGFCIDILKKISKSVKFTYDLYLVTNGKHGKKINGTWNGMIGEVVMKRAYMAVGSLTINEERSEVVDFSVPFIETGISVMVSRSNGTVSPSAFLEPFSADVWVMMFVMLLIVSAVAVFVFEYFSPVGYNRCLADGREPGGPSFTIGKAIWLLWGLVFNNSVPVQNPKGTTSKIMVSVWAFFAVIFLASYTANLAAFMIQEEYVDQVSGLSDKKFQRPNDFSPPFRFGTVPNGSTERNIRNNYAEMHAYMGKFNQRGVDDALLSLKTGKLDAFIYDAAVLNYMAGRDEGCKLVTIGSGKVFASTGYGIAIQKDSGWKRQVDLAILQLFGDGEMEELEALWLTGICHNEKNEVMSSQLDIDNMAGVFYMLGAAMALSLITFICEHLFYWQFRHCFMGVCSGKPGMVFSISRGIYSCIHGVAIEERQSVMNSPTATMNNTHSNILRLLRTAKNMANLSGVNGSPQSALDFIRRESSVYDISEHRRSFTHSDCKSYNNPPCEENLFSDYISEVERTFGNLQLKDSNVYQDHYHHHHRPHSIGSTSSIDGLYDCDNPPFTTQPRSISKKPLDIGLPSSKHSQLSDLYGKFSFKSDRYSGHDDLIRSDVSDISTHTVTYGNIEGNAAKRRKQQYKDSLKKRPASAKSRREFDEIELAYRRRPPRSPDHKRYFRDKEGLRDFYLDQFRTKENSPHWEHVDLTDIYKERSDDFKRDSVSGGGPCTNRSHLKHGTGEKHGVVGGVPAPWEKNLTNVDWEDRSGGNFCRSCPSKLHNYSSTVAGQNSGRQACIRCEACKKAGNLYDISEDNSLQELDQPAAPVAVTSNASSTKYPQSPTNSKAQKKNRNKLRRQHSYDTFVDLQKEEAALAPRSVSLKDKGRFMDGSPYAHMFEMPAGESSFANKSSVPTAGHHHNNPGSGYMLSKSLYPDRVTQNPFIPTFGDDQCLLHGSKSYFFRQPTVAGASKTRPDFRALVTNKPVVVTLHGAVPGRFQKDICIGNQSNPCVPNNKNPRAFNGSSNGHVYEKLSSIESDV
Procedure: cRNA was synthesized from linearized template cDNA for rat glutamate receptor subunits according to manufacturer specifications (Ambion). Quality of synthesized cRNA was assessed by gel electrophoresis, and quantity was estimated by spectroscopy and gel electrophoresis. Stage V and VI oocytes were surgically removed from the ovaries of large, well-fed and healthy Xenopus laevis anesthetized with 3-amino-benzoic acid ethyl ester (3 gm/l) as previously described. Clusters of isolated oocytes were incubated with 292 U/ml Worthington (Freehold, N.J.) type IV collagenase or 1.3 mg/ml collagenase (Life Technologies, Gaithersburg, Md.; 17018-029) for 2 hr in Ca^2+-free solution comprised of (in mM) 115 NaCl, 2.5 KCl, and 10 HEPES, pH 7.5, with slow agitation to remove the follicular cell layer. Oocytes were then washed extensively in the same solution supplemented with 1.8 mM CaCl2 and maintained in Barth's solution comprised of (in mM): 88 NaCl, 1 KCl, 2.4 NaHCO3, 10 HEPES, 0.82 MgSO4, 0.33 Ca(NO3)2, and 0.91 CaCl2 and supplemented with 100 μg/ml gentamycin, 10 μg/ml streptomycin, and 10 μg/ml penicillin. Oocytes were manually defolliculated and injected within 24 hrs of isolation with 3-5 ng of NR1 subunit cRNA and 7-10 ng of NR2 cRNA subunit in a 50 nl volume, or 5-10 ng of AMPA or kainate receptor cRNAs in a 50 nl volume, and incubated in Barth's solution at 18° C. for 1-7 d. Glass injection pipettes had tip sizes ranging from 10-20 microns, and were backfilled with mineral oil.
Two electrode voltage-clamp recordings were made 2-7 days post-injection as previously described. Oocytes were placed in a dual-track plexiglass recording chamber with a single perfusion line that splits in a Y-configuration to perfuse two oocytes. Dual recordings were made at room temperature (23° C.) using two Warner OC725B two-electrode voltage clamp amplifiers, arranged as recommended by the manufacturer. Glass microelectrodes (1-10 Megaohms) were filled with 300 mM KCl (voltage electrode) or 3 M KCl (current electrode). The bath clamps communicated across silver chloride wires placed into each side of the recording chamber, both of which were assumed to be at a reference potential of 0 mV. Oocytes were perfused with a solution comprised of (in mM) 90 NaCl, 1 KCl, 10 HEPES, and 0.5 BaCl2; pH was adjusted by addition of 1-3 M NaOH of HCl. Oocytes were recorded under voltage clamp at −40 mV. Final concentrations for control application of glutamate (50 μM) plus glycine (30 μM) were achieved by adding appropriate volumes from 100 and 30 mM stock solutions, respectively. In addition, 10 μM final EDTA was obtained by adding a 1:1000 dilution of 10 mM EDTA, in order to chelate contaminant divalent ions such as Zn^2+. Concentration-response curves for experimental compounds were obtained by applying in successive fashion maximal glutamate/glycine, followed by glutamate/glycine plus variable concentrations of experimental compounds. Dose response curves consisting of 4 to 8 concentrations were obtained in this manner. The baseline leak current at −40 mV was measured before and after recording, and the full recording linearly corrected for any change in leak current. Oocytes with glutamate-evoked responses smaller than 50 nA were not included in the analysis. The level of inhibition by applied experimental compounds was expressed as a percent of the initial glutamate response, and averaged together across oocytes from a single frog. Each experiment consisted of recordings from 3 to 10 oocytes obtained from a single frog. Results from 3-6 experiments were pooled, and the average percent responses at antagonist concentrations were fitted by the equation,
Percent Response=(100−minimum)/(1+([conc]/IC50)^nH)+minimum […]

[3] = molecular target: T1, human ether-a-go-go potassium channel (hERG) expressed in HEK293 cells (Homo sapiens, UniProt Q12809); assay: hERG binding by displacement of 3[H]-astemizole; conditions: 3[H]-astemizole displacement; Ki from IC50 by Cheng and Prusoff
T1 construct: expressed in transfected cells; host or cells: HEK293
T1 sequence (Q12809 whole entry): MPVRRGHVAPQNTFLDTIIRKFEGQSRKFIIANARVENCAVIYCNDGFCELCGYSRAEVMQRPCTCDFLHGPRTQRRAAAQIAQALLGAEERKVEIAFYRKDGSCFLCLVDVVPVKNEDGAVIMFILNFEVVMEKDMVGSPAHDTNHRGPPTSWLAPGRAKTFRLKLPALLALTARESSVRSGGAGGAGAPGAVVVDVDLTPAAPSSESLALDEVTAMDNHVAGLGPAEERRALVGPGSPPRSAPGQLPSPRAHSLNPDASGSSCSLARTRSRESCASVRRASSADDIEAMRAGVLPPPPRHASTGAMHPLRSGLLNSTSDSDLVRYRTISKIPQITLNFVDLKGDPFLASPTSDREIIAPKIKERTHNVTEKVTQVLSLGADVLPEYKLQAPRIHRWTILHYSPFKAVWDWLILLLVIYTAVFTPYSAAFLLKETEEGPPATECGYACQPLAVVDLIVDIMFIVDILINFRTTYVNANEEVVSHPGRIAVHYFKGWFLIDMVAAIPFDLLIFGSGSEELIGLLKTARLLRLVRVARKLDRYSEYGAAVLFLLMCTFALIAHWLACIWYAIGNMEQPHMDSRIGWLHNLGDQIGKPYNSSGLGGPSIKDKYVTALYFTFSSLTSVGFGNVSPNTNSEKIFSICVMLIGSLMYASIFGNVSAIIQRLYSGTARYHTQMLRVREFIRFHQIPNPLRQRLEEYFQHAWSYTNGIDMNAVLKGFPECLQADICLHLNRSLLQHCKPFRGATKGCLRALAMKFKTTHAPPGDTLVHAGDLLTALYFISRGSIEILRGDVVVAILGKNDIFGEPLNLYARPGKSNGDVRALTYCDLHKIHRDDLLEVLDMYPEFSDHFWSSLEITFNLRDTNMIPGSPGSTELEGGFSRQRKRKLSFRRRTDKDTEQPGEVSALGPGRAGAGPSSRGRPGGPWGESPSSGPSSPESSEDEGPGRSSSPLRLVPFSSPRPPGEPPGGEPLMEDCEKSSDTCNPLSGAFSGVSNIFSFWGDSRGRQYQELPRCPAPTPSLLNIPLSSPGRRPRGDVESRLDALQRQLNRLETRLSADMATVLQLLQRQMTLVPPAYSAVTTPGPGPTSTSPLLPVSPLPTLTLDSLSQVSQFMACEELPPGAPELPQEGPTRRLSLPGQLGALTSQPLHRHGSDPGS
Procedure: Compounds were evaluated for binding to the human ether-a-go-go potassium channel (hERG) expressed in HEK293 cells by displacement of ^3[H]-astemizole according to the methods by Finlayson et al. (K. Finlayson., L. Turnbull, C. T. January, J. Sharkey, J. S. Kelly; ^3[H]Dofetilide binding to HERG transfected membranes: a potential high throughput preclinical screen. Eur. J. Pharmacol. 2001, 430, 147-148). Compounds were incubated at 1 or 10 μM final concentration, in duplicate, and the amount of displaced ^3[H]-astemizole determined by liquid scintillation spectroscopy. In some cases, a seven concentration (each concentration in duplicate) displacement curve was generated to determine an IC50.
as §1

[4] = test system: MDR1-MDCK cell monolayers that express the multidrug transporter P-gp; assay: In vitro cell permeability assay to predict brain penetration potential; type: in vitro ADME; design: key: High: when Papp A−B≧3.0×10−6 cm/s, and efflux<3.0; Moderate: when Papp A−B≧3.0×10−6 cm/s, and 10>efflux≧3.0; Low: when either Papp A−B≧3.0×10−6 cm/s, and efflux≧10, or when Papp A−B<3.0×10−6 cm/s; conditions: 5 μM, pH 7.4, 2 hr, from Papp A-B and efflux ratio
Procedure: Penetration Classification (Table 24) using the in vitro cell permeability assay to predict bran penetration potential: Transwell® wells containing MDR1-MDCK cell monolayers that express the multidrug transporter P-gp were used for measuring the percent recovery of compound after dosing both sides of a cell monolayer with the test article. Monolayers were grown for 7-11 days at which time 5 μM of the test article was made by dilution from DMSO stocks into a Hank's balanced salt solution (pH 7.4), final DMSO not greater than 1%, and added to: a) the apical side for A-B permeability (apical to basal) assessment, or separately b) the basal side for the B-A permeability (basal to apical) assessment, all at pH 7.4. After a 2 hr incubation (37° C.) both the apical and the basal compartments were sampled and the amount of test article present determined by generic LC-MS/MS methods against a ≧4 point calibration curve. Experiments were done in duplicate. Apparent permeability (Papp units are reported×10−6 cm/s) are determined for the A−B and the B−A directions as well as the Efflux ratio (PappB−A/Papp A−B). The blood-brain barrier penetration potential is classified as follows: “High” when Papp A−B≧3.0×10−6 cm/s, and efflux<3.0; “Moderate” when Papp A−B≧3.0×10−6 cm/s, and 10>efflux≧3.0; and “Low” when either Papp A−B≧3.0×10−6 cm/s, and efflux≧10, or when Papp A−B<3.0×10−6 cm/s.

[5] = Brain exposure (brain:plasma ratio, Table 24); type: in vivo, Rats; conditions: rat, brain and plasma, read-out: RATIO: Brain:plasma (Direct); for Kp at 30 min: 30 m; for Kp: avg
Procedure: Animals were fasted overnight prior to dose administration and food returned to the animals two hours after dosing. Following IV dosing, blood samples (ca 200 μL) were collected into separate tubes containing anticoagulant (K-EDTA) via the orbital plexus at various times post administration. Plasma samples were prepared immediately after collection by centrifugation for ten minutes using a tabletop centrifuge, and stored at −80° C. Brain tissue was weighed, homogenized on ice in 50 mM phosphate buffer (2 ml per brain) and the homogenate stored at −80° C. Plasma and brain homogenate samples were extracted by the addition of 5 volumes of cold acetonitrile, mixed well by vortexing and centrifuged at 4000 rpm for 15 minutes. The supernatant fractions were analyzed by LC-MS/MS operating in multiple reaction monitoring mode (MRM). The amount of parent compound in each sample was calculated by comparing the response of the analyte in the sample to that of a standard curve.

IC50 [1] [µM] | IC50 ([2]; pH 6.9, read-out: IC50 pH 6.9) [µM] | IC50 ([2]; pH 7.6, read-out: IC50 pH 7.6) [µM] | Structure (SMILES) | Ki [3] [µM] | BBB Pene Classification [4] | further results
~0.3 | 0.41 | 3.83 | O[C@H](COc1ccc2[nH]ncc2c1)CN1CCN(c2ccc(Cl)cc2)CC1 | ~1 | – | –
~0.35 | 0.069 | 0.55 | O=c1ccc2cc(OC[C@@H](O)CN3CCN(c4ccc(Cl)cc4)CC3)ccc2[nH]1 | ~7.5 | – | –
~0.1 | 0.37 | 0.029 | O=C1Cc2cc(OC[C@@H](O)CN3CCN(c4ccc(Cl)cc4)CC3)ccc2N1 | ~10 | – | –
~0.15 | 0.016 | 0.076 | O[C@H](COc1ccc2[nH]c(=S)[nH]c2c1)CN1CCN(c2ccc(Cl)cc2)CC1 | ~7.5 | – | –
~0.1 | 0.012 | 0.066 | O=C1CCc2cc(OC[C@@H](O)CN3CCN(c4ccc(Cl)cc4)CC3)ccc2N1 | ~5 | – | –
0.72 | 0.074 | 0.555 | Oc1ccc(OC[C@@H](O)CN2CCN(c3ccc(Cl)cc3)CC2)cc1 [drawing 775] | 39 | – | –

Second part, the compound before the results:

Structure (SMILES) | IC50 [1] [µM] | IC50 ([2]; pH 6.9, read-out: IC50 pH 6.9) [µM] | IC50 ([2]; pH 7.6, read-out: IC50 pH 7.6) [µM] | Ki [3] [µM] | BBB Pene Classification [4] | further results
CS(=O)(=O)Nc1ccc(OC[C@@H](O)CN2CCN(c3ccc(Cl)cc3)CC2)cc1 | 0.35 | 0.032 | 0.27 | 0.553 | – | –
O=c1[nH]c2ccc(OC[C@@H](O)CN3CCN(c4ccc(Cl)cc4)CC3)cc2o1 [drawing 776] | 0.62 | 0.051 | 0.447 | 1.6 | – | –
NC(=O)Nc1ccc(OC[C@@H](O)CN2CCN(c3ccc(Cl)cc3)CC2)cc1 [drawing 778] | 0.34 | 0.046 | 0.452 | 13 | – | –
O=c1[nH]c2ccc(OC[C@@H](O)CN3CCN(c4ccc(Cl)cc4)CC3)cc2[nH]1 [drawing 781] | ~0.35 | 0.014 | 0.103 | ~7.5 | – | –
Oc1ccc(OC[C@@H](O)CN2CCN(c3ccc(Cl)cc3)CC2)cc1 [drawing 800] | – | – | – | – | High (when Papp A−B≧3.0×10−6 cm/s, and efflux<3.0) | Kp at 30 min ([5]; iv, 3 mg/kg, 3 MPK i.v.): 11; Kp at 1 h ([5]; iv, 3 mg/kg, 3 MPK i.v., 1 hr): 9.5; Kp ([5]; iv, 3 mg/kg, 3 MPK i.v.): 10.2
Cc1ccc(N2CCN(C[C@H](O)COc3ccc4[nH]c(=O)oc4c3)CC2)cc1 [drawing 801] | – | – | – | – | Moderate (when Papp A−B≧3.0×10−6 cm/s, and 10>efflux≧3.0) | Kp at 30 min ([5]; iv, 3 mg/kg, 3 MPK i.v.): 2.3; Kp at 1 h ([5]; iv, 3 mg/kg, 3 MPK i.v., 1 hr): 2.9; Kp at 2 h ([5]; iv, 3 mg/kg, 3 MPK i.v.): 1.7; Kp ([5]; iv, 3 mg/kg, 3 MPK i.v.): 2.3
CS(=O)(=O)Nc1ccc(OC[C@@H](O)CN2CCN(c3ccc(F)c(F)c3)CC2)cc1 [drawing 802] | – | – | – | – | Moderate (when Papp A−B≧3.0×10−6 cm/s, and 10>efflux≧3.0) | Kp at 30 min ([5]; ip, 60 mg/kg, 60 MPK, i.p.): 0.7; Kp at 2 h ([5]; ip, 60 mg/kg, 60 MPK, i.p.): 0.7; Kp at 4 h ([5]; ip, 60 mg/kg, 60 MPK, i.p., 4 hr): 0.9; Kp ([5]; ip, 60 mg/kg, 60 MPK, i.p.): 0.77
NC(=O)Nc1ccc(OC[C@@H](O)CN2CCN(c3ccc(Cl)cc3)CC2)cc1 [drawing 803] | – | – | – | – | Low | Kp at 30 min ([5]; iv, 1 mg/kg, 1MPK i.v.): 0.24; Kp at 6 h ([5]; iv, 3 mg/kg, 3 MPK i.v., 6 hr): 0.49; Kp at 1 hr ([5]; iv, 3 MPK i.v. @ 6 hr, 1MPK @ 0.5 hr and 2 hr, 1 hr): 0.53; Kp ([5]; iv, 3 MPK i.v. @ 6 hr, 1MPK @ 0.5 hr and 2 hr): 0.42
O=C1N(C[C@H](O)COc2ccc(O)cc2)CCN1c1ccc(Cl)cc1 [drawing 804] | – | – | – | – | High (when Papp A−B≧3.0×10−6 cm/s, and efflux<3.0) | Kp at 30 min ([5]; iv, 3 mg/kg, 3 MPK i.v.): 0.68; Kp at 1 h ([5]; iv, 3 mg/kg, 3 MPK i.v., 1 hr): 0.49; Kp ([5]; iv, 3 mg/kg, 3 MPK i.v.): 0.59
